Laboratory results: patent US9969749B2, “Inhibitors of IRAK4 activity” (MERCK SHARP & DOHME CORP., priority 2014, dated 2018)

What follows are compounds tested against IRAK4 (Homo sapiens (Human), UniProt Q9NWZ3) (assay: IRAK4 Kinase Assay (IMAP fluorescence polarization)). Details: 0.5 nM GST tagged IRAK4, 100 μM ATP, 100 nM fluorescent peptide substrate RP7030, 30 minutes at 25° C.
Format: biochemical
Outline: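 GST-tagged IRAK4 (0.5 nM) phosphorylates 100 nM fluorescent peptide with 100 μM ATP in 10 mM Tris pH 7.2, 1 mM MgCl2, 1 mM DTT, 0.01% Tween 20 for 30 min at 25 °C. Phosphorylation read as IMAP nanoparticle-binding fluorescence polarization after stop reagent.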

Chain of IRAK4 (Q9NWZ3 whole entry): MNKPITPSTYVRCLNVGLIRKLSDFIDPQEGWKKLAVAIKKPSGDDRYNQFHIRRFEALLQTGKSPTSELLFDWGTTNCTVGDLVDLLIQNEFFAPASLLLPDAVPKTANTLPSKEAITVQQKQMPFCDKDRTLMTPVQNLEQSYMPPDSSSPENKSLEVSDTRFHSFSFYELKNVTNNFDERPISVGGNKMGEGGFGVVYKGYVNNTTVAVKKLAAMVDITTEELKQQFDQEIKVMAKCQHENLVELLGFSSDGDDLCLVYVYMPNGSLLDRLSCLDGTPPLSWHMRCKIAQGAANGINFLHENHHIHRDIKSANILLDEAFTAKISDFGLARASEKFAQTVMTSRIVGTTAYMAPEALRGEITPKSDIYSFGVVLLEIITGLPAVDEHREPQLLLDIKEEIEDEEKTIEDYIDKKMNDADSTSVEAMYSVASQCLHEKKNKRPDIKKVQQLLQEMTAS

| IC50 | SMILES |
| --- | --- |
| 2290 nM | CN(C)C1CCC(Nc2ncnc3ccc(-c4ccncc4)cc23)CC1 (single isomer, unassigned) [Example 1-3, cis or trans-N,N-dimethyl-N′-[6-(pyridin-4-yl)quinazolin-4-yl]cyclohexane-1,4-diamine] |
| 13 nM | Fc1cc(-c2ccc3ncnc(N[C@H]4CC[C@H](N5CCOCC5)CC4)c3c2)cnc1F [Example 2-34, 6-(5,6-difluoropyridin-3-yl)-N-[trans-4-(morpholin-4-yl)cyclohexyl]quinazolin-4-amine] |
| 109 nM | CN(C)[C@H]1CC[C@H](Nc2ncnc3ccc(-c4cnc5ccoc5c4)cc23)CC1 [Example 1-61, trans-N′-[6-(furo[3,2-b]pyridin-6-yl)quinazolin-4-yl]-N,N-dimethylcyclohexane-1,4-diamine] |
| 11 nM | Clc1cncc(-c2ccc3ncnc(N[C@H]4CC[C@H](N5CCOCC5)CC4)c3c2)c1 [Example 1-99, 6-(5-chloropyridin-3-yl)-N-[trans-4-(morpholin-4-yl)cyclohexyl]quinazolin-4-amine] |
| 19 nM | c1cncc(-c2ccc3ncnc(N[C@H]4CC[C@H](N5CCOCC5)CC4)c3c2)c1 [Example 1-46, N-[trans-4-(morpholin-4-yl)cyclohexyl]-6-(pyridin-3-yl)quinazolin-4-amine] |
| 11 nM | CN(C)C1CCC(Nc2ncnc3ccc(-c4ccncc4)cc23)CC1 (single isomer, unassigned) [Example 1-6, cis or trans-N,N-dimethyl-N′-[6-(pyridin-4-yl)quinazolin-4-yl]cyclohexane-1,4-diamine] |
| 169 nM | FC(F)(F)c1ncc(-c2ccc3ncnc(N[C@H]4CC[C@@H](N5CCOCC5)CC4)c3c2)cn1 [Example 1-90, N-[cis-4-(morpholin-4-yl)cyclohexyl]-6-[2-(trifluoromethyl)pyrimidin-5-yl]quinazolin-4-amine] |
| 1 nM | CNc1cc(-c2ccc3ncnc(N[C@H]4CC[C@H](N5C[C@@H](C)O[C@@H](C)C5)CC4)c3c2)cnc1F [Example 5-26, N-{trans-4-[(2R,6S)-2,6-dimethylmorpholin-4-yl]cyclohexyl}-6-[6-fluoro-5-(methylamino)pyridin-3-yl]quinazolin-4-amine] |
| 390 nM | CC(C)c1nc(-c2ccc3ncnc(N[C@H]4CC[C@H](N5CCOCC5)CC4)c3c2)cs1 [Example 2-3, 6-[2-(1-methylethyl)-1,3-thiazol-4-yl]-N-(trans-4-morpholin-4-ylcyclohexyl)quinazolin-4-amine] |
| 92 nM | CCn1cc(-c2ccc3ncnc(N[C@H]4CC[C@H](N(C)C)CC4)c3c2)cn1 [Example 1-18, trans-N′-[6-(1-ethyl-1H-pyrazol-4-yl)quinazolin-4-yl]-N,N-dimethylcyclohexane-1,4-diamine] |
| 19 nM | CN(C)[C@H]1CC[C@H](Nc2ncnc3ccc(-c4cnccc4C(F)(F)F)cc23)CC1 [Example 1-36, trans-N,N-dimethyl-N′-{6-[4-(trifluoromethyl)pyridin-3-yl]quinazolin-4-yl}cyclohexane-1,4-diamine] |
| 1 nM | Nc1cc(-c2ccc3ncnc(N[C@H]4CC[C@H](N5CCC(F)CC5)CC4)c3c2)cnc1F [Example 5-16, 6-(5-amino-6-fluoropyridin-3-yl)-N-[trans-4-(4-fluoropiperidin-1-yl)cyclohexyl]quinazolin-4-amine] |
| 25 nM | COc1cc(-c2ccc3ncnc(N[C@H]4CC[C@H](N(C)C)CC4)c3c2)ccn1 [Example 1-8, trans-N′-[6-(2-methoxypyridin-4-yl)quinazolin-4-yl]-N,N-dimethylcyclohexane-1,4-diamine] |
| 28 nM | CNc1ncc(-c2ccc3ncnc(N[C@H]4CC[C@H](N(C)C)CC4)c3c2)cn1 [Example 1-13, trans-N,N-dimethyl-N′-{6-[2-(methylamino)pyrimidin-5-yl]quinazolin-4-yl}cyclohexane-1,4-diamine] |
| 23 nM | CN(C)[C@H]1CC[C@H](Nc2ncnc3ccc(-c4cc(F)cc(F)c4)cc23)CC1 [Example 1-62, trans-N′-[6-(3,5-difluorophenyl)quinazolin-4-yl]-N,N-dimethylcyclohexane-1,4-diamine] |
| 8 nM | N#Cc1n[nH]cc1-c1ccc2ncnc(N[C@H]3CC[C@H](N4CCOCC4)CC3)c2c1 [Example 2-10, 4-{4-[(trans-4-morpholin-4-ylcyclohexyl)amino]quinazolin-6-yl}-1H-pyrazole-3-carbonitrile] |
| 129 nM | CN(C)[C@H]1CC[C@H](Nc2ncnc3ccc(-c4cncc(C(=O)NC(C)(C)C)c4)cc23)CC1 [Example 1-56, N-tert-butyl-5-(4-{[trans-4-(dimethylamino)cyclohexyl]amino}quinazolin-6-yl)pyridine-3-carboxamide] |
| 1190 nM | Cc1cn(C)c(-c2ccc3ncnc(N[C@H]4CC[C@H](N5CCOCC5)CC4)c3c2)n1 [Example 2-23, 6-(1,4-dimethyl-1H-imidazol-2-yl)-N-[trans-4-(morpholin-4-yl)cyclohexyl]quinazolin-4-amine] |

| IC50 | SMILES |
| --- | --- |
| 1 nM | CNc1cc(-c2ccc3ncnc(N[C@H]4CC[C@H](N5CCN(C(=O)C6CC6)CC5)CC4)c3c2)cnc1F [Example 5-28, cyclopropyl {4-[trans-4-({6-[6-fluoro-5-(methylamino)pyridin-3-yl]quinazolin-4-yl}amino)cyclohexyl]piperazin-1-yl}methanone] |
| 15 nM | Fc1cc2ncnc(N[C@H]3CC[C@H](N4CCOCC4)CC3)c2cc1-c1cncnc1 [Example 1-87, 7-fluoro-N-(trans-4-morpholin-4-ylcyclohexyl)-6-pyrimidin-5-ylquinazolin-4-amine] |
| 324 nM | Cn1nccc1-c1ccc2ncnc(N[C@H]3CC[C@H](N4CCOCC4)CC3)c2c1 [Example 2-13, 6-(1-methyl-1H-pyrazol-5-yl)-N-(trans-4-morpholin-4-ylcyclohexyl)quinazolin-4-amine] |
| 71 nM | COc1cnccc1-c1ccc2ncnc(N[C@H]3CC[C@H](N(C)C)CC3)c2c1 [Example 1-38, trans-N′-[6-(3-methoxypyridin-4-yl)quinazolin-4-yl]-N,N-dimethylcyclohexane-1,4-diamine] |
| 492 nM | Cc1c[nH]c(-c2ccc3ncnc(N[C@H]4CC[C@H](N5CCOCC5)CC4)c3c2)n1 [Example 2-22, 6-(4-methyl-1H-imidazol-2-yl)-N-[trans-4-(morpholin-4-yl)cyclohexyl]quinazolin-4-amine] |
| 20 nM | c1nc(N[C@H]2CC[C@H](N3CCOCC3)CC2)c2cc(-c3cc[nH]n3)ccc2n1 [Example 1-91, N-[trans-4-(morpholin-4-yl)cyclohexyl]-6-(1H-pyrazol-3-yl)quinazolin-4-amine] |
| 3 nM | CN(C)[C@H]1CC[C@H](Nc2ncnc3ccc(-c4cncnc4)cc23)CC1 [Example 1-25, trans-N,N-dimethyl-N′-[6-(pyrimidin-5-yl)quinazolin-4-yl]cyclohexane-1,4-diamine] |
| 12 nM | Fc1c[nH]nc1-c1ccc2ncnc(N[C@H]3CC[C@H](N4CCOCC4)CC3)c2c1 [Example 2-9, 6-(4-fluoro-1H-pyrazol-3-yl)-N-(trans-4-morpholin-4-ylcyclohexyl)quinazolin-4-amine] |
| 2 nM | CNc1cc(-c2ccc3ncnc(N[C@H]4CC[C@H](N5CCC(F)(F)CC5)CC4)c3c2)cnc1F [Example 5-27, N-[trans-4-(4,4-difluoropiperidin-1-yl)cyclohexyl]-6-[6-fluoro-5-(methylamino)pyridin-3-yl]quinazolin-4-amine] |
| 26 nM | Cc1cncc(-c2ccc3ncnc(N[C@H]4CC[C@H](N5CCOCC5)CC4)c3c2)c1 [Example 1-93, 6-(5-methylpyridin-3-yl)-N-[trans-4-(morpholin-4-yl)cyclohexyl]quinazolin-4-amine] |
| 3160 nM | CN(C)C1CCC(Nc2ncnc3ccc(-c4ccccc4)cc23)CC1 (single isomer, unassigned) [Example 1-2, cis or trans-N,N-dimethyl-N′-(6-phenylquinazolin-4-yl)cyclohexane-1,4-diamine] |
| 25 nM | CN(C)[C@H]1CC[C@H](Nc2ncnc3ccc(-c4cnc(NCCO)nc4)cc23)CC1 [Example 1-43, 2-{[5-(4-{[trans-4-(dimethylamino)cyclohexyl]amino}quinazolin-6-yl)pyrimidin-2-yl]amino}ethanol] |
| 3 nM | c1ncc(-c2ccc3ncnc(N[C@H]4CC[C@H](N5CCOCC5)CC4)c3c2)cn1 [Example 1-47, N-[trans-4-(morpholin-4-yl)cyclohexyl]-6-(pyrimidin-5-yl)quinazolin-4-amine] |
| 330 nM | CC(C)(O)c1cncc(-c2ccc3ncnc(N[C@H]4CC[C@H](N5CCOCC5)CC4)c3c2)c1 [Example 1-95, 2-[5-(4-{[trans-4-(morpholin-4-yl)cyclohexyl]amino}quinazolin-6-yl)pyridin-3-yl]propan-2-ol] |
| 54 nM | CN(C)[C@H]1CC[C@H](Nc2ncnc3ccc(-c4cnccc4C#N)cc23)CC1 [Example 1-22, 3-(4-{[trans-4-(dimethylamino)cyclohexyl]amino}quinazolin-6-yl)pyridine-4-carbonitrile] |
| 2 nM | c1nc(N[C@H]2CC[C@H](N3CCOCC3)CC2)c2cc(-c3cnoc3)ccc2n1 [Example 2-28, 6-(isoxazol-4-yl)-N-[trans-4-(morpholin-4-yl)cyclohexyl]quinazolin-4-amine] |
| 92 nM | Cc1nc(-c2ccc3ncnc(N[C@H]4CC[C@H](N5CCOCC5)CC4)c3c2)cs1 [Example 2-2, 6-(2-methyl-1,3-thiazol-4-yl)-N-(trans-4-morpholin-4-ylcyclohexyl)quinazolin-4-amine] |
| 41 nM | N#Cc1sccc1-c1ccc2ncnc(N[C@H]3CC[C@H](N4CCOCC4)CC3)c2c1 [Example 2-17, 3-(4-{[trans-4-(morpholin-4-yl)cyclohexyl]amino}quinazolin-6-yl)thiophene-2-carbonitrile] |
